# US10927106B2, “Benzothiazole derivatives as DYRK1 inhibitors” (PHARMASUM THERAPEUTICS AS, priority 2017, dated 2021)
# Read-outs that look alike come from different tables or passages of the source.
# Key:
# Assay in all cases: Kinase profiling, 33P ATP filter binding assay
# Format in all cases: biochemical
# EPH-A4 = EPH-A4 (Homo sapiens (Human), UniProt P54764); conditions: 1 micromolar inhibitor concentration, read-out: percentage inhibition
# DDR2 = DDR2 (Homo sapiens (Human), UniProt Q16832); conditions: 1 micromolar inhibitor concentration, read-out: percentage inhibition
# PIM2 = PIM2 (Homo sapiens (Human), UniProt Q9P1W9); conditions: 1 micromolar inhibitor concentration, read-out: percentage inhibition
# CHK2 = CHK2 (Homo sapiens (Human), UniProt O96017); conditions: 1 micromolar inhibitor concentration, read-out: percentage inhibition
# EPH-B4 = EPH-B4 (Homo sapiens (Human), UniProt P54760); conditions: 1 micromolar inhibitor concentration, read-out: percentage inhibition
# MARK3 = MARK3 (Homo sapiens (Human), UniProt P27448); conditions: 1 micromolar inhibitor concentration, read-out: percentage inhibition
# PAK6 = PAK6 (Homo sapiens (Human), UniProt Q9NQU5); conditions: 1 micromolar inhibitor concentration, read-out: percentage inhibition
# TTBK1 = TTBK1 (Homo sapiens (Human), UniProt Q5TCY1); conditions: 1 micromolar inhibitor concentration, read-out: percentage inhibition
# JAK2 = JAK2 (Homo sapiens (Human), UniProt O60674); conditions: 1 micromolar inhibitor concentration, read-out: percentage inhibition
# MAP4K5 = MAP4K5 (Homo sapiens (Human), UniProt Q9Y4K4); conditions: 1 micromolar inhibitor concentration, read-out: percentage inhibition
# BRSK2 = BRSK2 (Homo sapiens (Human), UniProt Q8IWQ3); conditions: 1 micromolar inhibitor concentration, read-out: percentage inhibition
# SYK = SYK (Homo sapiens (Human), UniProt P43405); conditions: 1 micromolar inhibitor concentration, read-out: percentage inhibition
# MST4 = MST4 (Homo sapiens (Human), UniProt Q9P289); conditions: 1 micromolar inhibitor concentration, read-out: percentage inhibition
# ERK8 = ERK8 (Homo sapiens (Human), UniProt Q8TD08); conditions: 1 micromolar inhibitor concentration, read-out: percentage inhibition
# FGF-R1 = FGF-R1 (Homo sapiens (Human), UniProt P11362); conditions: 1 micromolar inhibitor concentration, read-out: percentage inhibition
# TIE2 = TIE2 (Homo sapiens (Human), UniProt Q02763); conditions: 1 micromolar inhibitor concentration, read-out: percentage inhibition
# Sequence of TIE2 (Q02763 23-1124, species assumed): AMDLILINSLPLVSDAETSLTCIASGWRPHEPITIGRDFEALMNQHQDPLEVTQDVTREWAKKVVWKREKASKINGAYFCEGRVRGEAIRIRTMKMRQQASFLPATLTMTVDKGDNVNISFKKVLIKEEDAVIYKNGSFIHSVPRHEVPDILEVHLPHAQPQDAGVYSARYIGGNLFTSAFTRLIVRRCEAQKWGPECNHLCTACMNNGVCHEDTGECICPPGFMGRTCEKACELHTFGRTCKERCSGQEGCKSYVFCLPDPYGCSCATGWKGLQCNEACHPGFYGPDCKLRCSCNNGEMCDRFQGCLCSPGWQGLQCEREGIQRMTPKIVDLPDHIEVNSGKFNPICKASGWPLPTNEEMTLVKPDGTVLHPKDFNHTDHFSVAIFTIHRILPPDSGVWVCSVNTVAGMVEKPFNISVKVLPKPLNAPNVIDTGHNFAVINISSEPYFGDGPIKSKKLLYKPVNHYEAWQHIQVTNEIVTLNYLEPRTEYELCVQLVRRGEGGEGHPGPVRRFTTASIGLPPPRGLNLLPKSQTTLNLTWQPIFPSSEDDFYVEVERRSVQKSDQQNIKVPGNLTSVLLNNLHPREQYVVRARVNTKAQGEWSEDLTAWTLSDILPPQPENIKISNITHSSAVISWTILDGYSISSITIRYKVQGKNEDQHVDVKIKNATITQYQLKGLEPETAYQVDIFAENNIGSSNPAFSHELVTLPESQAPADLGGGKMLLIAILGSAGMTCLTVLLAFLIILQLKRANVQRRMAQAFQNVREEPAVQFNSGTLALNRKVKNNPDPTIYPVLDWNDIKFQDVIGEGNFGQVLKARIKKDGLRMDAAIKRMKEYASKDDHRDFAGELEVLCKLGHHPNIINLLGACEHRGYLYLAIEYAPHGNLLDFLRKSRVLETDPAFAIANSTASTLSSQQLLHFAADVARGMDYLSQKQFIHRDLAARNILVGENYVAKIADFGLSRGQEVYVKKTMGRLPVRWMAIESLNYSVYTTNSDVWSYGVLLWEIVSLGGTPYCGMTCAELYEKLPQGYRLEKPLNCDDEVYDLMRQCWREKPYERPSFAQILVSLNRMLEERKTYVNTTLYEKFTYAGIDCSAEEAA
# JNK1 = JNK1 (Homo sapiens (Human), UniProt P45983); conditions: 1 micromolar inhibitor concentration, read-out: percentage inhibition
# TBK1 = TBK1 (Homo sapiens (Human), UniProt Q9UHD2); conditions: 1 micromolar inhibitor concentration, read-out: percentage inhibition
# MEKK1 = MEKK1 (Homo sapiens (Human), UniProt Q13233); conditions: 1 micromolar inhibitor concentration, read-out: percentage inhibition
# STK33 = STK33 (Homo sapiens (Human), UniProt Q9BYT3); conditions: 1 micromolar inhibitor concentration, read-out: percentage inhibition
# p38g MAPK = p38g MAPK (Homo sapiens (Human), UniProt P53778); conditions: 1 micromolar inhibitor concentration, read-out: percentage inhibition
# CK1δ = CK1δ (Homo sapiens (Human), UniProt P48730); conditions: read-out: percentage inhibition
# Experimental: The determination of protein kinase inhibition was performed at the International Centre for Kinase Profiling at the University of Dundee, UK. […] The ATP concentrations were at or below the calculated Km for ATP for each particular kinase.
# ZAP70 = ZAP70 (Homo sapiens (Human), UniProt P43403); conditions: 1 micromolar inhibitor concentration, read-out: percentage inhibition
# PAK5 = PAK5 (Homo sapiens (Human), UniProt Q9P286); conditions: 1 micromolar inhibitor concentration, read-out: percentage inhibition
# ULK2 = ULK2 (Homo sapiens (Human), UniProt Q8IYT8); conditions: 1 micromolar inhibitor concentration, read-out: percentage inhibition
# PIM3 = PIM3 (Homo sapiens (Human), UniProt Q86V86); conditions: 1 micromolar inhibitor concentration, read-out: percentage inhibition
# Lck = Lck (Homo sapiens (Human), UniProt P06239); conditions: 1 micromolar inhibitor concentration, read-out: percentage inhibition
# Sequence of Lck (P06239 whole entry, species assumed): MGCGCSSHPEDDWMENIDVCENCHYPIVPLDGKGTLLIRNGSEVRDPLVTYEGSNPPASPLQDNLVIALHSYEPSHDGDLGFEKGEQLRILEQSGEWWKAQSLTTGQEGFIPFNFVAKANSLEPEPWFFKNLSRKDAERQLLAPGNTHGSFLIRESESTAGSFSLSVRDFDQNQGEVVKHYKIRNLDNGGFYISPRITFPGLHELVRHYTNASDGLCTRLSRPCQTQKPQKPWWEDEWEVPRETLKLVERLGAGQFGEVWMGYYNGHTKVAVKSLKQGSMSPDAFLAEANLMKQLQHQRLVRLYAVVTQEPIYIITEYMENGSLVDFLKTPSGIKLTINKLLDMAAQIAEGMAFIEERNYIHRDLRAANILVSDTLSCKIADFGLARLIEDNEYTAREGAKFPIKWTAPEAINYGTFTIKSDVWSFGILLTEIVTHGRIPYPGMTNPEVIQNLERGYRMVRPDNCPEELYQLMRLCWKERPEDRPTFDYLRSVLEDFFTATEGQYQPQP
# MKK1 = MKK1 (Homo sapiens (Human), UniProt Q02750); conditions: 1 micromolar inhibitor concentration, read-out: percentage inhibition
# IRAK1 = IRAK1 (Homo sapiens (Human), UniProt P51617); conditions: 1 micromolar inhibitor concentration, read-out: percentage inhibition
# WNK1 = WNK1 (Homo sapiens (Human), UniProt Q9H4A3); conditions: 1 micromolar inhibitor concentration, read-out: percentage inhibition
# PKBa = PKBa (Homo sapiens (Human), UniProt P31749); conditions: 1 micromolar inhibitor concentration, read-out: percentage inhibition
# MARK4 = MARK4 (Homo sapiens (Human), UniProt Q96L34); conditions: 1 micromolar inhibitor concentration, read-out: percentage inhibition
# PDK1 = PDK1 (Homo sapiens (Human), UniProt O15530); conditions: 1 micromolar inhibitor concentration, read-out: percentage inhibition
# TGFBR1 = TGFBR1 (Homo sapiens (Human), UniProt P36897); conditions: 1 micromolar inhibitor concentration, read-out: percentage inhibition
# GCK = GCK (Homo sapiens (Human), UniProt Q12851); conditions: 1 micromolar inhibitor concentration, read-out: percentage inhibition
# Sequence of GCK (Q12851 whole entry): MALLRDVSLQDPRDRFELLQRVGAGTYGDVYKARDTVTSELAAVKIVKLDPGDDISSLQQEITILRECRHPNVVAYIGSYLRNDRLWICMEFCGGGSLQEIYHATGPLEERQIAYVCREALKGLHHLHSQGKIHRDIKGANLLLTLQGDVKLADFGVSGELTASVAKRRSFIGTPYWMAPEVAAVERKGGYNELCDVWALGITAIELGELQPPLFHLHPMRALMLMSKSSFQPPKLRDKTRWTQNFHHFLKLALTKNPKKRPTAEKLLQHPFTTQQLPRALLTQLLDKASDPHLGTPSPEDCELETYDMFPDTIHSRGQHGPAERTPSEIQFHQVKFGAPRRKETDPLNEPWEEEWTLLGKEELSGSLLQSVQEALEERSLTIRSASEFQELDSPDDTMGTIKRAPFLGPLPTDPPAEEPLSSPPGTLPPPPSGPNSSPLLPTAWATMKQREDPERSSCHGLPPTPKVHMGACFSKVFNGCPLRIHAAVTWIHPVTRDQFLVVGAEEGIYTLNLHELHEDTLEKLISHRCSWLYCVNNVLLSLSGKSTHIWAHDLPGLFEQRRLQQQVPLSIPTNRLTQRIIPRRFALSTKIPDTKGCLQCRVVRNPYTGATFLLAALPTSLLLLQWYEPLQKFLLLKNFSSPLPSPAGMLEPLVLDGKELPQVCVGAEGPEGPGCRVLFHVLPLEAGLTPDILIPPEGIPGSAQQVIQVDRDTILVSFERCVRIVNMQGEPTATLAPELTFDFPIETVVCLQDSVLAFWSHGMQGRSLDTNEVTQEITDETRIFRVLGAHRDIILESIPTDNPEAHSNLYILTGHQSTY
# EPH-B1 = EPH-B1 (Homo sapiens (Human), UniProt P54762); conditions: 1 micromolar inhibitor concentration, read-out: percentage inhibition
# Sequence of EPH-B1 (P54762 18-984, species assumed): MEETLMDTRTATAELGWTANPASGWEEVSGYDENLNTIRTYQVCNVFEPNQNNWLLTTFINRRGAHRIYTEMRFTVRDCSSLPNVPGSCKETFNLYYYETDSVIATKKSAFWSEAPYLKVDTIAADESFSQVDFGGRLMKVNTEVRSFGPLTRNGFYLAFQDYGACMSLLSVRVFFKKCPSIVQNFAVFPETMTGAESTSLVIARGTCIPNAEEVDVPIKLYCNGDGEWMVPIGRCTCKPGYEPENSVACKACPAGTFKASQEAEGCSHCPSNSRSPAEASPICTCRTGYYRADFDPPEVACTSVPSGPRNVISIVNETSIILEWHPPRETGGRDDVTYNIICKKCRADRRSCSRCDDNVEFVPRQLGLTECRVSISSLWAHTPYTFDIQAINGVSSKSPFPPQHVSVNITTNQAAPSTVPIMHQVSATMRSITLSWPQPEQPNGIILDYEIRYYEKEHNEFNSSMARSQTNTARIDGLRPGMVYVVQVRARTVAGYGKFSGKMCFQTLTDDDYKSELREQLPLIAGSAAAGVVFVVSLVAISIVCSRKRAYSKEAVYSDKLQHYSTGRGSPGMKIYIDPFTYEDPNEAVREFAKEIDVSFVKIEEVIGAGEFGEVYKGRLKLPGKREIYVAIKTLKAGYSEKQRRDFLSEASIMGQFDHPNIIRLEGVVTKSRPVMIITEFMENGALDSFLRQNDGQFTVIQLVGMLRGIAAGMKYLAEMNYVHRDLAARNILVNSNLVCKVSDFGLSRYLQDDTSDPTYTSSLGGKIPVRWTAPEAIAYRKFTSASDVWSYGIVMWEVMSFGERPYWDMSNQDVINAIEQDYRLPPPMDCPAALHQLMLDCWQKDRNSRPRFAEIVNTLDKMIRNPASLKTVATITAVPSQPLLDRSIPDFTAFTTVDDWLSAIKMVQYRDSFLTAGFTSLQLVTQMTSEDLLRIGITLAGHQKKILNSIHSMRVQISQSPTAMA
# MSK1 = MSK1 (Homo sapiens (Human), UniProt O75582); conditions: 1 micromolar inhibitor concentration, read-out: percentage inhibition
# Sequence of MSK1 (O75582 whole entry, species assumed): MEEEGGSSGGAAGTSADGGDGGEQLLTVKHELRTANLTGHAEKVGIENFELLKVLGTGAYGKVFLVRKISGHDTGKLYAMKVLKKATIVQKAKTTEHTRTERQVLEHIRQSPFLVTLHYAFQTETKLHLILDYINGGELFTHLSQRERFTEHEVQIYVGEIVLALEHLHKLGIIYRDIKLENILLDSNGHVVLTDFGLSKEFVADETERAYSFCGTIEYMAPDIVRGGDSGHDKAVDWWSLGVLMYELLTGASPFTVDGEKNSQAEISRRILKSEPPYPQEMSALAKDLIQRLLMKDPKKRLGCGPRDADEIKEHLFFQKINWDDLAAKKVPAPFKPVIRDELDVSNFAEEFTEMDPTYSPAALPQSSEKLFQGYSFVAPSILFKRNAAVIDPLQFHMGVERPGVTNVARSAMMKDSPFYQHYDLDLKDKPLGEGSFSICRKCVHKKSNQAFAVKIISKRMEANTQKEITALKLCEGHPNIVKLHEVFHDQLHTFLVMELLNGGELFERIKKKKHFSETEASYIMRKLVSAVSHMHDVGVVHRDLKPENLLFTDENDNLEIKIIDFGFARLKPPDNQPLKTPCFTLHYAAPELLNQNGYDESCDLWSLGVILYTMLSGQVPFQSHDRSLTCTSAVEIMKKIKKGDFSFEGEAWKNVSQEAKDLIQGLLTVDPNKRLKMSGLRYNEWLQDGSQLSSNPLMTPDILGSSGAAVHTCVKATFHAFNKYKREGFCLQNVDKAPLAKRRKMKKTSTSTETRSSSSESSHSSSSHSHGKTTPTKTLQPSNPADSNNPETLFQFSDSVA
# TrkA = TrkA (Homo sapiens (Human), UniProt P04629); conditions: 1 micromolar inhibitor concentration, read-out: percentage inhibition
# Sequence of TrkA (P04629 33-796, species assumed): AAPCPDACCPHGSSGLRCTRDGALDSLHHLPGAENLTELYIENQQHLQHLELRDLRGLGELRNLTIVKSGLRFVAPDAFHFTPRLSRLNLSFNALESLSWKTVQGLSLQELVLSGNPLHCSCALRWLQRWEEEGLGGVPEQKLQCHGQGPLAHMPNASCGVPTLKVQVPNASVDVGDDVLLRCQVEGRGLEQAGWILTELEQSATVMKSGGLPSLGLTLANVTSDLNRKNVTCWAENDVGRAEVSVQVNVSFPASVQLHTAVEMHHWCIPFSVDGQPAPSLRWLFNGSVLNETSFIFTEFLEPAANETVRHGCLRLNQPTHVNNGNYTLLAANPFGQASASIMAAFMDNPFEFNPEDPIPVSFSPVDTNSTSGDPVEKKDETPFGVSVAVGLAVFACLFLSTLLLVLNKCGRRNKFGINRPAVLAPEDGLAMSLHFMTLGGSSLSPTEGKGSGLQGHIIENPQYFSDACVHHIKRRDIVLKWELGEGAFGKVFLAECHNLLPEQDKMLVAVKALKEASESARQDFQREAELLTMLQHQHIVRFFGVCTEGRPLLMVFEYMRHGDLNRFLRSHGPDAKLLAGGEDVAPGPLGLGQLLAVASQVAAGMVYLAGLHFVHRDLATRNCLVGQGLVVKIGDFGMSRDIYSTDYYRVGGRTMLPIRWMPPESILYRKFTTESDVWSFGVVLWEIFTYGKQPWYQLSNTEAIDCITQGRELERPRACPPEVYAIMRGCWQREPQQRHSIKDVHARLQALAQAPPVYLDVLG
# MNK1 = MNK1 (Homo sapiens (Human), UniProt Q9BUB5); conditions: 1 micromolar inhibitor concentration, read-out: percentage inhibition
# PAK2 = PAK2 (Homo sapiens (Human), UniProt Q13177); conditions: 1 micromolar inhibitor concentration, read-out: percentage inhibition
# SRPK1 = SRPK1 (Homo sapiens (Human), UniProt Q96SB4); conditions: 1 micromolar inhibitor concentration, read-out: percentage inhibition
# OSR1 = OSR1 (Homo sapiens (Human), UniProt O95747); conditions: 1 micromolar inhibitor concentration, read-out: percentage inhibition
smiles,measurement,setting,value
"COc1ccc2sc(-c3cncc(NC(C)=O)c3)nc2c1 [4-93, N-(5-(5-Methoxybenzo[d]thiazol-2-yl)pyridin-3-yl)acetamide]",inhibition at 1 µM,EPH-A4,0%
same,inhibition at 1 µM,DDR2,2%
same,inhibition at 1 µM,PIM2,0%
same,inhibition at 1 µM,CHK2,0%
same,inhibition at 1 µM,EPH-B4,0%
same,inhibition at 1 µM,MARK3,1%
same,inhibition at 1 µM,PAK6,0%
same,inhibition at 1 µM,TTBK1,0%
same,inhibition at 1 µM,JAK2,0%
same,inhibition at 1 µM,MAP4K5,18%
same,inhibition at 1 µM,BRSK2,0%
same,inhibition at 1 µM,SYK,0%
same,inhibition at 1 µM,MST4,0%
same,inhibition at 1 µM,ERK8,11%
same,inhibition at 1 µM,FGF-R1,0%
same,inhibition at 1 µM,TIE2,0%
same,inhibition at 1 µM,JNK1,0%
same,inhibition at 1 µM,TBK1,0%
same,inhibition at 1 µM,MEKK1,0%
same,inhibition at 1 µM,STK33,0%
same,inhibition at 1 µM,p38g MAPK,0%
same,inhibition at 1 µM,CK1δ,1%
same,inhibition at 1 µM,ZAP70,0%
same,inhibition at 1 µM,PAK5,0%
same,inhibition at 1 µM,ULK2,0%
same,inhibition at 1 µM,PIM3,7%
same,inhibition at 1 µM,Lck,7%
same,inhibition at 1 µM,MKK1,0%
same,inhibition at 1 µM,IRAK1,0%
same,inhibition at 1 µM,WNK1,0%
same,inhibition at 1 µM,PKBa,0%
same,inhibition at 1 µM,MARK4,0%
same,inhibition at 1 µM,PDK1,0%
same,inhibition at 1 µM,TGFBR1,0%
same,inhibition at 1 µM,GCK,0%
same,inhibition at 1 µM,EPH-B1,0%
same,inhibition at 1 µM,MSK1,0%
same,inhibition at 1 µM,TrkA,0%
same,inhibition at 1 µM,MNK1,0%
same,inhibition at 1 µM,PAK2,0%
same,inhibition at 1 µM,SRPK1,0%
same,inhibition at 1 µM,OSR1,0%
"CS(=O)(=O)Nc1cncc(-c2nc3cc(O)ccc3s2)c1 [4-99, N-(5-(5-Hydroxybenzo[d]thiazol-2-yl)pyridin-3-yl)methanesulfonamide]",inhibition at 1 µM,EPH-A4,0%
same,inhibition at 1 µM,DDR2,0%
same,inhibition at 1 µM,PIM2,0%
same,inhibition at 1 µM,CHK2,0%
same,inhibition at 1 µM,EPH-B4,0%
same,inhibition at 1 µM,MARK3,0%
same,inhibition at 1 µM,PAK6,0%
same,inhibition at 1 µM,TTBK1,0%
same,inhibition at 1 µM,JAK2,0%
same,inhibition at 1 µM,MAP4K5,0%
same,inhibition at 1 µM,BRSK2,0%
same,inhibition at 1 µM,SYK,0%
same,inhibition at 1 µM,MST4,0%
same,inhibition at 1 µM,ERK8,0%
same,inhibition at 1 µM,FGF-R1,0%
same,inhibition at 1 µM,TIE2,3%
same,inhibition at 1 µM,JNK1,0%
same,inhibition at 1 µM,TBK1,0%
same,inhibition at 1 µM,MEKK1,0%
same,inhibition at 1 µM,STK33,0%
same,inhibition at 1 µM,p38g MAPK,0%
same,inhibition at 1 µM,"CK1δ; CK1δ, 1 micromolar inhibitor concentration",8%
same,inhibition at 1 µM,ZAP70,0%
same,inhibition at 1 µM,PAK5,0%
same,inhibition at 1 µM,ULK2,0%
same,inhibition at 1 µM,PIM3,0%
same,inhibition at 1 µM,Lck,0%
same,inhibition at 1 µM,MKK1,0%
same,inhibition at 1 µM,IRAK1,0%
same,inhibition at 1 µM,WNK1,0%
same,inhibition at 1 µM,PKBa,0%
same,inhibition at 1 µM,MARK4,0%
same,inhibition at 1 µM,PDK1,0%
same,inhibition at 1 µM,TGFBR1,0%
same,inhibition at 1 µM,GCK,0%
same,inhibition at 1 µM,EPH-B1,0%
same,inhibition at 1 µM,MSK1,0%
same,inhibition at 1 µM,TrkA,0%
same,inhibition at 1 µM,MNK1,0%
same,inhibition at 1 µM,PAK2,0%
same,inhibition at 1 µM,SRPK1,0%
same,inhibition at 1 µM,OSR1,0%
